Molecular target: T1, VEGFR-2 (Homo sapiens, UniProt P35968)
T1 construct: gene KDR; biotin-labeled VEGFR-2 (Prospec)
Test: in vitro tyrosine kinase ELISA
Type: biochemical

T1 sequence (P35968 20-1356): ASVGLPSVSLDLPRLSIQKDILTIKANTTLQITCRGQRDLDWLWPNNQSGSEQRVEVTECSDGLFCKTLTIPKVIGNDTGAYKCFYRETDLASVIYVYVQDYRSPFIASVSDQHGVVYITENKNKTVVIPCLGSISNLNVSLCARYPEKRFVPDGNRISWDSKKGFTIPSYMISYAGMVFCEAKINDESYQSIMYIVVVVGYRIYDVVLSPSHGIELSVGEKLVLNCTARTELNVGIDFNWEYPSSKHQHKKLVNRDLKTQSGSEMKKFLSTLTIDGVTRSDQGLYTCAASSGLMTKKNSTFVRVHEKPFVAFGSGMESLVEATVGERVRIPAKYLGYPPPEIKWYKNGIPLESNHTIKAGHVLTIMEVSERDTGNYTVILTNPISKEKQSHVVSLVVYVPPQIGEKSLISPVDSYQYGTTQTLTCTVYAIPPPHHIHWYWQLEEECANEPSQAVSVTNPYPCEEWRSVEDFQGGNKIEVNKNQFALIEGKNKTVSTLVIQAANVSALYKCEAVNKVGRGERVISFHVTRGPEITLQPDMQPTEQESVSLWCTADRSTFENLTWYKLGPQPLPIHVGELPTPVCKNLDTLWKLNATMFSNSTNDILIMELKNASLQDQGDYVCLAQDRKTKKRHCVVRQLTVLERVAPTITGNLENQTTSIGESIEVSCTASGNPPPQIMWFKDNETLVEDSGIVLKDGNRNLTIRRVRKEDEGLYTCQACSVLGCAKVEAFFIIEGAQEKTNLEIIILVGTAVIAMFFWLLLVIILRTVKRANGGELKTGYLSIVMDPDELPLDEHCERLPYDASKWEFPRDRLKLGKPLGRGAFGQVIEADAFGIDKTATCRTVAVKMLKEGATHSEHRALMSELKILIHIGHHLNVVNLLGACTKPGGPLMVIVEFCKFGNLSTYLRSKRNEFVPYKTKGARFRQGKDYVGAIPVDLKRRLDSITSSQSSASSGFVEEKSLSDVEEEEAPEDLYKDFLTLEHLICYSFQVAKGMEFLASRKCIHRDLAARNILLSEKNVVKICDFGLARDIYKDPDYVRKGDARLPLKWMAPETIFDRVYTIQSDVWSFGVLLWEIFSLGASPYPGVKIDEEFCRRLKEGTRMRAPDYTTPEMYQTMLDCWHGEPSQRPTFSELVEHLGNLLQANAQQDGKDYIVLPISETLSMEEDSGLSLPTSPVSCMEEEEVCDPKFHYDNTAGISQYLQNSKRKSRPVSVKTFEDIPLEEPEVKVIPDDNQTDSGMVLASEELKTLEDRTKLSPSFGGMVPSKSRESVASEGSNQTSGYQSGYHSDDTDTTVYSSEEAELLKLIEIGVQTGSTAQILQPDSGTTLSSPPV

Structure (SMILES): O=C(/C=C/c1ccc(O)cc1)c1ccc(O)cc1O [ISL, Isoliquiritigenin]
- IC50: ~100 nM

Reference: publication PMC3702614, “Dietary Compound Isoliquiritigenin Inhibits Breast Cancer Neoangiogenesis via VEGF/VEGFR-2 Signaling Pathway” (PLoS ONE, 2013)
